Assay results: ChEMBL document CHEMBL3244314, “Synthesis and xanthine oxidase inhibitory analysis of 1H-pyrrolo[3,2-c]pyridine-4,6(5H,7H)-dione (3,7-dideazaxanthine) and two of its derivatives” (J Med Chem, 1978); call rule not given here

Experiments:
[1] = molecular target: T1, Xanthine dehydrogenase/oxidase (Bos taurus, UniProt P80457); assay: Noncompetitive inhibition of bovine buttermilk xanthine oxidase by Lineweaver-burk plot analysis; conditions: read-out: Kis
[2] = molecular target: T1, Xanthine dehydrogenase/oxidase; assay: Inhibition of bovine buttermilk xanthine oxidase by spectrophotometric analysis; conditions: cattle

T1 sequence (P80457 whole entry): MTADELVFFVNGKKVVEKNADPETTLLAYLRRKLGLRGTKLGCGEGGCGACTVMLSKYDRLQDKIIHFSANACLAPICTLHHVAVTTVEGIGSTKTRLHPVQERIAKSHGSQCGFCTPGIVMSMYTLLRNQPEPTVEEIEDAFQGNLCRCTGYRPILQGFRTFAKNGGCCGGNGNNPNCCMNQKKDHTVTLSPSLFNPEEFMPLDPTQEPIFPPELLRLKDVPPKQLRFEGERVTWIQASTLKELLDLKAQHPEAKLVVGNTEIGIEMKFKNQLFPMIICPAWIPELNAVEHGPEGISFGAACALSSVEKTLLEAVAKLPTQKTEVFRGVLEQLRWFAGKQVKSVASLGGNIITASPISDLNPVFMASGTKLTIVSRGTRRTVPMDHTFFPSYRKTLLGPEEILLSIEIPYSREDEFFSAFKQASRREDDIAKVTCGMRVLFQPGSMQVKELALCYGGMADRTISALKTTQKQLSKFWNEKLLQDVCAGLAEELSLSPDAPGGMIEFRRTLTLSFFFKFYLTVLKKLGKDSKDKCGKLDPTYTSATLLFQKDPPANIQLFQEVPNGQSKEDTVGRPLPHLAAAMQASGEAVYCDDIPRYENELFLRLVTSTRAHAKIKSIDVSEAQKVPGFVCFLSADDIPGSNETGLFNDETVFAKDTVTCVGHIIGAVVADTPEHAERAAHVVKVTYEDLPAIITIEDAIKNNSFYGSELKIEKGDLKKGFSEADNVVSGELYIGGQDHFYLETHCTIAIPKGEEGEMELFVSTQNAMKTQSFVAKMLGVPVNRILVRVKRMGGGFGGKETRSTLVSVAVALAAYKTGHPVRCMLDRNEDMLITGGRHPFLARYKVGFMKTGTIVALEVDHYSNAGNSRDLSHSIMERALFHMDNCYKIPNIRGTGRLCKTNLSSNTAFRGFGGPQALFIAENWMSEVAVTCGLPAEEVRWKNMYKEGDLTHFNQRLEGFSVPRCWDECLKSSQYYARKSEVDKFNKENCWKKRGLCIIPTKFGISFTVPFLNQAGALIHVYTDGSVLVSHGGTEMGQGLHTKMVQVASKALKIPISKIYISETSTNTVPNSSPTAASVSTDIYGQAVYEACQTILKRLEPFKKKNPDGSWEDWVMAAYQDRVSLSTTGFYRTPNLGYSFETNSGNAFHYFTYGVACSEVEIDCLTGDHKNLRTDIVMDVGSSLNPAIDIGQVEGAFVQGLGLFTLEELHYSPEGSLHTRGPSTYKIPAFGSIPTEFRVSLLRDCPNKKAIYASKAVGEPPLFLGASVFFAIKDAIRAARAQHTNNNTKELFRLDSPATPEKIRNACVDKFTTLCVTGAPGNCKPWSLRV

| Ki [1] | inhibition (INH) [2] | SMILES |
| --- | --- | --- |
| 92.5 µM | – | O=C1Cc2[nH]ccc2C(=O)N1 |
| 120 µM | – | CN1C(=O)Cc2[nH]ccc2C1=O |
| – | Not Active | O=C1Cc2[nH]ccc2C(=O)O1 |
